Tested on: pancreatic progenitor cells
Assay: Induction of differentiation from pancreatic progenitor cells into insulin-producing cells (floating culture)
Format: cell-based
Details: floating culture 7 days in the presence of YAC together with ALK5 inhibitor II, versus YAC; FIG. 6
Protocol: Total RNA was isolated from the pancreatic exocrine cells and PSC cells using miRNeasy Mini Kit (QIAGEN). Reverse transcription reaction was carried out using High-Capacity cDNA Reverse Transcription Kit (Life Technologies) following the manufacturer's guideline. The resulting cDNA was used as a template to perform PCR with Platinum SYBR Green qPCR SuperMix UDG (Invitrogen). The expression level of the target gene was normalized with β-actin as the endogenous control.
The cells were fixed with 4% paraformaldehyde for 15 minutes. The resultant was incubated with a blocking solution (Blocking One) (Nacalai Tesque, Kyoto) at 4° C. for 30 minutes, and then the cells were incubated with primary antibody at room temperature for an hour or at 4° C. overnight. Then, Alexa Fluor 488- or Alexa Fluor 594-labeled secondary antibody (Life Technologies) was used to detect the primary antibody. The nuclei were co-stained with Hoechst 33342 (Dojindo).
The cells were suspended in 5% FBS-containing SHM+YAC (cell density: 1×10^4 to 1×10^6 cells/cm') and cultured on an ultra-low adsorption culture dish for 7 days. The medium was exchanged on the fourth day.

`Cc1cccc(-c2[nH]ncc2-c2ccc3ncccc3n2)n1` [ALK5 inhibitor II] was tested, and the “mRNA expression of Insulin and GLUT2” value was “further improvements”.

Reference: US20210403874A1, “Method for Producing Stem/Precursor Cells, By Using Low Molecular Weight Compound, From Cells Derived From Endodermal Tissue or Organ” (Evia Life Sciences Inc., priority 2018, published 2021)
